Like-named read-outs stand apart in the source and are kept apart here.
Columns and labels:
domaine D2 = domaine D2 (Homo sapiens, UniProt P14416); experiment: MDS Panlabs screen: D2; type: binding; details: Catecholamines
Protocol: (§1) Tests were conducted by MDS Panlabs to determine whether any of the classical neurotransmitter systems or the peptidergic systems thought to play a role in anxiety are affected by betulinic acid.

nicototinic = experiment: MDS Panlabs screen: nicotinic; type: binding; details: Acetylcholine
Protocol: as §1

Sigma non-selective = experiment: MDS Panlabs screen: Sigma non-selective; type: binding
Protocol: as §1

EGF = EGF (Homo sapiens, UniProt P00533); experiment: MDS Panlabs screen: EGF; type: binding; details: Peptides
EGF, sequence (P00533 25-1210): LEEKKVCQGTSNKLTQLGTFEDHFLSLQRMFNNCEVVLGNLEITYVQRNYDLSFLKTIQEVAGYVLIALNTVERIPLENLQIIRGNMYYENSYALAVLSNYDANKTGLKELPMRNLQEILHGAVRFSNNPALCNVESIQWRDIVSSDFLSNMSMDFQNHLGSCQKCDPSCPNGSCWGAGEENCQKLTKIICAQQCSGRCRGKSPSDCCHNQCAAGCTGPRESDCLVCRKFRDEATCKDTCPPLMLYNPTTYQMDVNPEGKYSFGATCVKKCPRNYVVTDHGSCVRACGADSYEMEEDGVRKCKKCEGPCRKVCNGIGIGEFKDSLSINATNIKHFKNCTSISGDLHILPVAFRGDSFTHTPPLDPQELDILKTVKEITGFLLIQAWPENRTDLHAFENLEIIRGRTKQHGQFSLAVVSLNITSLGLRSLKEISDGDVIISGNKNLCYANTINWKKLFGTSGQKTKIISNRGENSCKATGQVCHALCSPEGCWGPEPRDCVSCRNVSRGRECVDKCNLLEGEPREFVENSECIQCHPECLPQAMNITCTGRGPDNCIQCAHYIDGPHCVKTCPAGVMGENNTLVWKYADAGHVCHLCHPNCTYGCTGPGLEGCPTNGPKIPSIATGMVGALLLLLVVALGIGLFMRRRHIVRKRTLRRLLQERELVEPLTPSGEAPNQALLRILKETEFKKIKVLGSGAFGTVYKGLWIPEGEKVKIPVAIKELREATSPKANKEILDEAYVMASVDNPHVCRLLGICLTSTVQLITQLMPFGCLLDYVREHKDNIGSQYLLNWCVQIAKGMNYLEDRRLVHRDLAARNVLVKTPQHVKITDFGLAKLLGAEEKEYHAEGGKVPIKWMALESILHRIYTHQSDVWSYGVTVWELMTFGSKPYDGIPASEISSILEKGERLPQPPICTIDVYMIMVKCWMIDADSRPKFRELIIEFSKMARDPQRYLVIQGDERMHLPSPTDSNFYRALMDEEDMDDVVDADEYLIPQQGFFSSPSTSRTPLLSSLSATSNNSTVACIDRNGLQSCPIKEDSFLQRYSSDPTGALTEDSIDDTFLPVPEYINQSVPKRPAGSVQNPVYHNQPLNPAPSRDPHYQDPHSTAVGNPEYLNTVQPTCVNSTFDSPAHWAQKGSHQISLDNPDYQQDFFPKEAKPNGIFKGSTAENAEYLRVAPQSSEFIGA
Protocol: as §1

5-HT1 = experiment: MDS Panlabs screen: 5-HT1; type: binding; details: Serotonin (5-HT)
Protocol: as §1

GABA transporter = experiment: MDS Panlabs screen: GABA transporter; type: binding; details: Gabaergic
Protocol: as §1

Sprague-Dawley rats = experiment: Elevated plus-maze (EPM) test in rats; type: in vivo, rat; details: 1 mg/kg in peanut oil orally (gavage), 45-60 min after treatment, vs peanut oil (FIG. 3)
Protocol: The majority of tests described in the following examples were conducted on adult; male Sprague-Dawley rats (typically weighing ˜300-450 gm) were obtained from Charles River Canada, St. Constant, Quebec. They were individually housed in standard clear Plexiglas cages (24×30×18 cm) and maintained on a 12 hr light/dark cycle (7:00 A.M.-7:00 P.M. light phase) in a temperature and humidity controlled room. Unless indicated otherwise, animals had free access to water and maintained on a restricted diet of 5 pellets a day of Purina Lab Chow. All experimental procedures complied with the guidelines of the Canadian Council on Animal Care and were approved by the Research Ethics Committee at the University of Ottawa. […]
The EPM constitutes of a plus-shaped maze with two enclosed arms (or alleys; 50×10×40 cm) and two open arms (or planks; 50×10 cm), with a 10×10 cm central zone. […] To avoid distractions, the EPM was surrounded by black curtain and the subjects were monitored remotely, using a closed circuit camera mounted above the set-up.
The rats were randomly assigned to each of the drug conditions. […] Behaviours scored included time spent in the open arms of the maze, time spent in the closed arms of the maze, number of entries into the open-arms and number of entries into the closed arm of the maze. […]

COX-1 = COX-1 (Homo sapiens, UniProt P23219); experiment: MDS Panlabs screen: cyclooxygenase COX-1; type: biochemical
COX-1, sequence (P23219 24-599): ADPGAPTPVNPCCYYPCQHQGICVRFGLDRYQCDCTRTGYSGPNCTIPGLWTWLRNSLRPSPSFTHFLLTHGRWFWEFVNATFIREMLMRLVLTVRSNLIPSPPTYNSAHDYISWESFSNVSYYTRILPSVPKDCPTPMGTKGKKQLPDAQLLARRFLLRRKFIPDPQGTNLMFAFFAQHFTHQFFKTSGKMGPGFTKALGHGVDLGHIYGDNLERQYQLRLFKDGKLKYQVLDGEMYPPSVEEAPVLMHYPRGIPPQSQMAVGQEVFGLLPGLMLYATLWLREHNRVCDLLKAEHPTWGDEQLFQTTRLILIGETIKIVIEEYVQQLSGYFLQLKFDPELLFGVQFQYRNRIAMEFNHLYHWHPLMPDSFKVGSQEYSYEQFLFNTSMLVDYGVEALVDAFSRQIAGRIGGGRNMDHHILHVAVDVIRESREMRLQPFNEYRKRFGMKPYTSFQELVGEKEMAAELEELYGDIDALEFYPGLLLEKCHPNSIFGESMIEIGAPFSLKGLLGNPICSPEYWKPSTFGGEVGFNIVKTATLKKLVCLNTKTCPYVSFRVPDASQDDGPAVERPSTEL
Protocol: as §1

5-HT3 = 5-HT3 (Homo sapiens, UniProt P46098); experiment: MDS Panlabs screen: 5-HT3; type: binding; details: Serotonin (5-HT)
5-HT3, sequence (P46098 24-478, species assumed): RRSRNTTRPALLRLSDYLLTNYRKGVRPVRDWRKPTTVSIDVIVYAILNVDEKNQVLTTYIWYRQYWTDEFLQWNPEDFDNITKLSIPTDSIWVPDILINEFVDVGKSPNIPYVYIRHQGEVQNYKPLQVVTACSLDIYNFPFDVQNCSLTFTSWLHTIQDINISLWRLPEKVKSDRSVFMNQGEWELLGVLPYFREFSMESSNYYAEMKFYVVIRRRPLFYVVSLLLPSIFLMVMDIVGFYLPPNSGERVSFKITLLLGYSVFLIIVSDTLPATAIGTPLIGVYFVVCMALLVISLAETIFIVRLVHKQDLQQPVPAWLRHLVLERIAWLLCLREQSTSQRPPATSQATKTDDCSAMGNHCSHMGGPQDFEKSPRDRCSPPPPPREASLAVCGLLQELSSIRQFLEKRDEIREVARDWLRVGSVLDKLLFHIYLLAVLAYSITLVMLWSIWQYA
Protocol: as §1

[1] = Elevated plus maze, betulinic acid vs structurally related compounds (Example 11); type: in vivo; details: 0.5 mg/kg (FIG. 7)
Excerpt: This example compares the anxiolytic activity of betulinic acid and some other structurally related compounds. Results are illustrated in FIG. 7.

GLP-1 = GLP-1 (Homo sapiens, UniProt P43220); experiment: MDS Panlabs screen: GLP-1; type: binding; details: Peptides
GLP-1, sequence (P43220 24-463): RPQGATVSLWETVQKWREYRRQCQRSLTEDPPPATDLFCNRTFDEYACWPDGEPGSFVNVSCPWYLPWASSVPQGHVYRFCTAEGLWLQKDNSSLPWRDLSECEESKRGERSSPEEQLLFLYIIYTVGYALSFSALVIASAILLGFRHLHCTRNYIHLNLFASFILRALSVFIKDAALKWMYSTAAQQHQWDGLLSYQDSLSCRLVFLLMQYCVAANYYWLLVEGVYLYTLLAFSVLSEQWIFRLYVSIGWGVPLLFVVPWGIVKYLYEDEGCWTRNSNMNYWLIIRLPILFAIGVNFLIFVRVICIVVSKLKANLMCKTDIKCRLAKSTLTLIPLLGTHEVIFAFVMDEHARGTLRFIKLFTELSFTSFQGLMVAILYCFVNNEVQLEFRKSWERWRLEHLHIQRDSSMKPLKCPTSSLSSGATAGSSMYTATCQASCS
Protocol: as §1

TNF non-selective = experiment: MDS Panlabs screen: TNF non-selective; type: binding; details: Peptides
Protocol: as §1

[2] = Weight gain over chronic treatment; type: in vivo, rat; details: rats, chronic 0.5 mg/kg daily orally (FIG. 12)
GABAA, agonist site = experiment: MDS Panlabs screen: GABAA, agonist site; type: binding; details: Gabaergic
Protocol: as §1

Sprague Dawley rats = experiment: Locomotor activity after chronic administration; type: in vivo, rat; details: chronic 0.5 mg/kg daily orally, one night 5 p.m. to 7 a.m. (FIG. 11)
Protocol: Test animals and drug treatments were as in Example 14. Locomotor activity was recorded for one night (5 p.m. to 7 a.m. the following morning) in the control as well as in the betulinic acid and methyl ester of betulinic acid exposed groups. Locomotor activity was monitored using infrared sensors located on the roof of the animals' cage. Eight independent sensors monitored activity of animals according to the number of quadrants traversed.

[3] = cited from earlier work
CD-1 strain of mice = experiment: Elevated plus maze test in CD-1 mice; type: in vivo, mouse; details: for entries into the open (anxiogenic) arm of the elevated plus maze: 45-60 min, vs peanut oil control
Protocol: Previous experiments were all conducted in experimental rats. Here we tested the effect of betulinic acid on CD-1 strain of mice. Mice received 0.25 or 2.5 mg/kg of betulinic acid, or peanut oil only (control), intra peritoneally (“i.p.”), and were tested 45-60 minutes later in the elevated plus maze test.

domaine D2, sequence (P14416 whole entry): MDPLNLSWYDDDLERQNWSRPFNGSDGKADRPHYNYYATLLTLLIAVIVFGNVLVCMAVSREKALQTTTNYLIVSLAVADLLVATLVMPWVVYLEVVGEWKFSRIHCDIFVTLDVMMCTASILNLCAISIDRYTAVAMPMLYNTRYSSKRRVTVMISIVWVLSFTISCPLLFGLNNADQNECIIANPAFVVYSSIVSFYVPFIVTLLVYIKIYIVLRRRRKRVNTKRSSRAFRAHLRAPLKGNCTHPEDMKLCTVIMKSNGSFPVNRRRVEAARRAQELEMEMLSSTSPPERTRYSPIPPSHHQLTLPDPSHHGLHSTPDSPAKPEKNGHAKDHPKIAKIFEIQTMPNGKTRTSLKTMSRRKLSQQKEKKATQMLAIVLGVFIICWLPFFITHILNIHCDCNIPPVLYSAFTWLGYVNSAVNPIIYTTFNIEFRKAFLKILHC

C=C(C)[C@@H]1CC[C@]2(C(=O)O)CC[C@]3(C)C(CC[C@@H]4[C@@]5(C)CC[C@H](O)C(C)(C)[C@@H]5CC[C@]43C)[C@@H]12 (stereo partly drawn) [betulinic acid, Betulinic acid]
affected by betulinic acid (domaine D2): none of the following neurotransmitters or proteins were affected | affected by betulinic acid (nicototinic): none of the following neurotransmitters or proteins were affected | affected by betulinic acid (Sigma non-selective): none of the following neurotransmitters or proteins were affected | affected by betulinic acid (EGF): none of the following neurotransmitters or proteins were affected | affected by betulinic acid (5-HT1): none of the following neurotransmitters or proteins were affected | affected by betulinic acid (GABA transporter): none of the following neurotransmitters or proteins were affected | time spent on the open arms of the plus-maze (Sprague-Dawley rats): spent significantly more time on the open arms of the plus-maze | affected by betulinic acid (COX-1): none of the following neurotransmitters or proteins were affected | affected by betulinic acid (5-HT3): none of the following neurotransmitters or proteins were affected | proportion of time spent in the open arm of the elevated plus maze [1]: increased | affected by betulinic acid (GLP-1): none of the following neurotransmitters or proteins were affected | affected by betulinic acid (TNF non-selective): none of the following neurotransmitters or proteins were affected | effect of chronic drug treatment on weight gain [2]: did not seem to affect weight gain in a significant manner | affected by betulinic acid (GABAA, agonist site): none of the following neurotransmitters or proteins were affected | adverse effect on locomotor activity or pattern (Sprague Dawley rats): neither betulinic acid nor the methyl ester of betulinic acid had an adverse effect on locomotor activity or pattern | toxicity in a Hippocratic screen ([3]; 200 mg/kg): non-toxic | toxicity in a Hippocratic screen ([3]; 400 mg/kg): non-toxic | entries into the open (anxiogenic) arm of the elevated plus maze (CD-1 strain of mice; CD-1 mice, 0.25 mg/kg i.p.): more often than controls | entries into the open (anxiogenic) arm of the elevated plus maze (CD-1 strain of mice; CD-1 mice, 2.5 mg/kg i.p.): more often than controls | proportion of time spent on the open arm of the maze (CD-1 strain of mice; CD-1 mice, 0.25 or 2.5 mg/kg i.p. (dose not singled out in the sentence)): increased significantly | maximally effective dose (CD-1 strain of mice; mice, i.p., elevated plus maze, higher dose did not increase the effect further): 0.25 mg/kg

From US20130065868A1, “ANXIOYTIC MARCGRAVIACEAE COMPOSITIONS CONTAINING BETULINIC ACID, BETULINIC ACID DERIVATIVES, AND METHODS” (UNIVERSITY OF OTTAWA, priority 2002, published 2013)
